Here are results for five compounds from the NIST ThermoML archive (doi:10.1016/j.tca.2018.03.002).

± gives the expanded uncertainty stated by the source.

For the series the following is noted: Crystal; DTA.
Take `CCC(=O)O` [propanoic acid]: the Normal melting temperature was -21.20 ± 2 °C.

For the compound `O` [water], the Normal melting temperature amounted to 0.00 ± 2 °C. In the case of `O=CO` [formic acid] it was 9.70 ± 8 °C; in that of `CC(=O)O` [acetic acid], 16.80 ± 6 °C.

Turning to `CCCC(=O)O` [butanoic acid], the Normal melting temperature was -4.50 ± 4 °C.
